From article PMC5559406, “A human PET study of [^11C]HMS011, a potential radioligand for AMPA receptors” (EJNMMI Research, 2017)

Target: T1, human AMPA receptors
T1 construct: gene GRIA1; assay details only in supplement
Test: radioligand receptor binding assay (details in supplement)
Conditions: labelled compound; noncompetitive (perampanel derivative); subunit not told

Kd: ~15 nM
SMILES: CNc1cccc(-n2cc(-c3ncccn3)cc(-c3ccccc3C#N)c2=O)c1 [[11C]HMS011, 2-(1-(3-([^11C]methylamino)phenyl)-2-oxo-5-(pyrimidin-2-yl)-1,2-dihydropyridin-3-yl) benzonitrile]
